According to ChEMBL document CHEMBL5291721, “A preclinical secondary pharmacology resource illuminates target-adverse drug reaction associations of marketed drugs” (Nat Commun, 2023):

Assays:
[1] = molecular target: T1, Adenosine receptor A1 (Homo sapiens, UniProt P30542)
T1 sequence (P30542 whole entry): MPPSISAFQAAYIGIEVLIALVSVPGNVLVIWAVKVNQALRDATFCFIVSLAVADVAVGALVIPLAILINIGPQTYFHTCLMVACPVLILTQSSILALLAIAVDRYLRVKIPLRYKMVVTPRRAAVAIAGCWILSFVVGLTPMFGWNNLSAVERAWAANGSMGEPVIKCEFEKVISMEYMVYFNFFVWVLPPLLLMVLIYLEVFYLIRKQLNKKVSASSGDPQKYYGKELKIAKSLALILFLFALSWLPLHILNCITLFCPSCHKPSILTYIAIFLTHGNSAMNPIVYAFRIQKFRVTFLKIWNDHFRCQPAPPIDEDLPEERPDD

[2] = molecular target: T2, Alpha-1A adrenergic receptor (Homo sapiens, UniProt P35348); assay type: functional, cell-based
T2 sequence (P35348 whole entry): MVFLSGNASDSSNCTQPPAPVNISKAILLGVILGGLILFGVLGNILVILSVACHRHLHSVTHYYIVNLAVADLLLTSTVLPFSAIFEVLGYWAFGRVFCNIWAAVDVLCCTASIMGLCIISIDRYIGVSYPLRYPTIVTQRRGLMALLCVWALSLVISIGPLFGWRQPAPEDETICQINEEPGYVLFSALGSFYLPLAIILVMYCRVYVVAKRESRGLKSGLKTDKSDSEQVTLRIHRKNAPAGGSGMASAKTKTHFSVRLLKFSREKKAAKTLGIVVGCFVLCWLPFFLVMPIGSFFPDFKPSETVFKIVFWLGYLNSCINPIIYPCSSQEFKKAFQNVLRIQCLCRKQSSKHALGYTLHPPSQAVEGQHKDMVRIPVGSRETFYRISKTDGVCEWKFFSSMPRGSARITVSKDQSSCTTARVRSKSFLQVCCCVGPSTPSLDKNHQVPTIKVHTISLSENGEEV

[3] = molecular target: Cannabinoid receptor 1 (Homo sapiens, UniProt P21554); assay type: functional, cell-based
[4] = molecular target: Gamma-aminobutyric acid receptor subunit alpha-1 (Rattus norvegicus, UniProt P62813)
[5] = molecular target: T3, 5-hydroxytryptamine receptor 2A (Homo sapiens, UniProt P28223); assay type: functional, cell-based
[6] = molecular target: T3, 5-hydroxytryptamine receptor 2A; assay type: functional, cell-based; remark: listed apart in the source
[7] = molecular target: 5-hydroxytryptamine receptor 2B (Homo sapiens, UniProt P41595); assay type: functional, cell-based
[8] = molecular target: Kappa-type opioid receptor (Homo sapiens, UniProt P41145)
[9] = molecular target: 3',5'-cyclic-AMP phosphodiesterase 4D (Homo sapiens, UniProt Q08499); assay type: functional
[10] = molecular target: D(3) dopamine receptor (Homo sapiens, UniProt P35462)
[11] = molecular target: T4, B2 bradykinin receptor (Homo sapiens, UniProt P30411)
T4 sequence (P30411 whole entry): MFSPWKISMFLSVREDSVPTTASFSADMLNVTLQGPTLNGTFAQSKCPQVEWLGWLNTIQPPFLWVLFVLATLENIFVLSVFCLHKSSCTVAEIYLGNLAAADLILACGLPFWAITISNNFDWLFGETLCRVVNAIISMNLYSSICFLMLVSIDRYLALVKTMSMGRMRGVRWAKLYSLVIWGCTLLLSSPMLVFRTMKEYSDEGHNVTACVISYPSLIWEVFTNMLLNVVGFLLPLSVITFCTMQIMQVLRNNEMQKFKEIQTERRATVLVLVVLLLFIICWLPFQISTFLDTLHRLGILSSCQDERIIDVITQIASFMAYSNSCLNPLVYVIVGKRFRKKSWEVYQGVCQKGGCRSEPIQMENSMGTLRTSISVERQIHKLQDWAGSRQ

[12] = molecular target: Voltage-dependent L-type calcium channel subunit alpha-1C (Rattus norvegicus, UniProt P22002); assay type: functional
[13] = molecular target: T5, Cholecystokinin receptor type A (Homo sapiens, UniProt P32238)
T5 sequence (P32238 whole entry): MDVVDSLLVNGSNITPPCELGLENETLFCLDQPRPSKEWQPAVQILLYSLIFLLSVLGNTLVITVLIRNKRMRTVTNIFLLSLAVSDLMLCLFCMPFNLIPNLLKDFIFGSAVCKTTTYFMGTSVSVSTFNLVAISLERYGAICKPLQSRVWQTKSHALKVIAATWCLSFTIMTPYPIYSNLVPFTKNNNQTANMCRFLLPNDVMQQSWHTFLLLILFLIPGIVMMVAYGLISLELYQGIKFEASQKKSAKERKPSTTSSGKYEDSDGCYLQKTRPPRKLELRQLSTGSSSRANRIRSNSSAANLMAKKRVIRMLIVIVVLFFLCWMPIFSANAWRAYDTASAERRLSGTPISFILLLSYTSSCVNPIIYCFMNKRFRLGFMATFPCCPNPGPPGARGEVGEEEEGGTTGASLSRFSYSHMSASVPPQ

[14] = molecular target: Neuronal acetylcholine receptor subunit alpha-4 (Homo sapiens, UniProt P43681)
[15] = molecular target: T6, Neuropeptide Y receptor type 1 (Homo sapiens, UniProt P25929)
T6 sequence (P25929 whole entry): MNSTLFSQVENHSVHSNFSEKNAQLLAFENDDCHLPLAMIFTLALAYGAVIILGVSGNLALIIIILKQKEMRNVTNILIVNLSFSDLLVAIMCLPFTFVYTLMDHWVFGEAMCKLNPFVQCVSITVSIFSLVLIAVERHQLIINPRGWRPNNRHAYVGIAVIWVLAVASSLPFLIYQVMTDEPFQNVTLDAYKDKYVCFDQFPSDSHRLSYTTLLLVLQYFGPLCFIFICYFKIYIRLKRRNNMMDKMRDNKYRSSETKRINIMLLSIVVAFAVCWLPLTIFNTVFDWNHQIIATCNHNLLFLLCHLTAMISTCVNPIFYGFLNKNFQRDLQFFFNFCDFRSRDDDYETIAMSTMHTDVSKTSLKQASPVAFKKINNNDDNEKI

[16] = molecular target: Sodium-dependent noradrenaline transporter (Homo sapiens, UniProt P23975)
Further: assay procedure not described here.

Chain of 5-hydroxytryptamine receptor 2B (P41595 whole entry): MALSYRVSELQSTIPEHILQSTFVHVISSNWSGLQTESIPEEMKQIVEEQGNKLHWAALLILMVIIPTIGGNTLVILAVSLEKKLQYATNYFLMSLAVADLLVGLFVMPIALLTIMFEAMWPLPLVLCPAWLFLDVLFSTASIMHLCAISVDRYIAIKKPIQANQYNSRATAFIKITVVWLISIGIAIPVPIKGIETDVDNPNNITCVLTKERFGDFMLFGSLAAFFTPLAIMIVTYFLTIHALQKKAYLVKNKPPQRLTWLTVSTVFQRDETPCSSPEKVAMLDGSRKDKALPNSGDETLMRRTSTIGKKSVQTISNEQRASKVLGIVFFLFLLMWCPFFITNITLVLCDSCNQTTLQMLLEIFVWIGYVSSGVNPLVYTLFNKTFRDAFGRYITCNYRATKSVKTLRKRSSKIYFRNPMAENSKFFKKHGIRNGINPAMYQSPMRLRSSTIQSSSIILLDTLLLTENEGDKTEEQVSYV
Chain of Kappa-type opioid receptor (P41145 whole entry): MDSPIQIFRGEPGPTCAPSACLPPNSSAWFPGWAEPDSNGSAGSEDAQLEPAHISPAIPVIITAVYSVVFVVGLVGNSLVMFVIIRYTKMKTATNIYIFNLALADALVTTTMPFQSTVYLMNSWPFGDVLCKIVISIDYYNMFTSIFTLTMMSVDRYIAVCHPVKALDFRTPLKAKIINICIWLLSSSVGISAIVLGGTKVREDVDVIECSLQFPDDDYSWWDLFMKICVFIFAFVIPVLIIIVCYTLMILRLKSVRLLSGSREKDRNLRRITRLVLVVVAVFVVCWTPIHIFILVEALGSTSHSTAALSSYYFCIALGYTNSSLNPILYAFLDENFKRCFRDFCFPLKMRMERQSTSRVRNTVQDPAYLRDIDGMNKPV
Chain of 3',5'-cyclic-AMP phosphodiesterase 4D (Q08499 whole entry): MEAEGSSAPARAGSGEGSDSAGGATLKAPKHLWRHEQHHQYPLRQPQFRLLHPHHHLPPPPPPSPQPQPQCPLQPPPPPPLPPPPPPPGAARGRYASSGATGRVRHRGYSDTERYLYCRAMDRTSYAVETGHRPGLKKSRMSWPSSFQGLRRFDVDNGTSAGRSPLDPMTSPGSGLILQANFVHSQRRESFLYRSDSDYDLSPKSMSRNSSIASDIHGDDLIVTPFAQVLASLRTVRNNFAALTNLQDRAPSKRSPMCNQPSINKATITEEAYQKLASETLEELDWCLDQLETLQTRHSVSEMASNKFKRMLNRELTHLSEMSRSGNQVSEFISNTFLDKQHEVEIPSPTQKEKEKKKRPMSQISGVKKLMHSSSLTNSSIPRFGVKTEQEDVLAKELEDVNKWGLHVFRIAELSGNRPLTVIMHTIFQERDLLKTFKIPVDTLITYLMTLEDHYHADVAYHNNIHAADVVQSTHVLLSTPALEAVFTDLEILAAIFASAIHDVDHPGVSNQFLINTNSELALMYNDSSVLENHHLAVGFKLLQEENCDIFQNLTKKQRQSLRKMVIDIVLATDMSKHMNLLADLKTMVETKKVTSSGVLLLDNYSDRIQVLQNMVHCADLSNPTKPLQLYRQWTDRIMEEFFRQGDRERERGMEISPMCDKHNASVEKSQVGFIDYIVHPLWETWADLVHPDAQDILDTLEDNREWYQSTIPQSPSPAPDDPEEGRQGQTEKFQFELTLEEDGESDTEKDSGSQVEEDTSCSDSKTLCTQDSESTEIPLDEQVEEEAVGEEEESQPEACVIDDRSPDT
Chain of D(3) dopamine receptor (P35462 whole entry): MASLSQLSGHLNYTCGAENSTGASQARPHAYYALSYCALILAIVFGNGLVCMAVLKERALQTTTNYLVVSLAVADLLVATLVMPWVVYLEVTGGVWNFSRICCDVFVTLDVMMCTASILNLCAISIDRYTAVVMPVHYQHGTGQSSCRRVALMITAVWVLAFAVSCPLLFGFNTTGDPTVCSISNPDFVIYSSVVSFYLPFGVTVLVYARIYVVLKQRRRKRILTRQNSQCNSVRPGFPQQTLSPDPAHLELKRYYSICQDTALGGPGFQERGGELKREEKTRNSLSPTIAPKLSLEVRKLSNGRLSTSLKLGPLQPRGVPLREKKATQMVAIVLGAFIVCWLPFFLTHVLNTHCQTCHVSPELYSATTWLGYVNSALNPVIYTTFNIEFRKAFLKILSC
Chain of Gamma-aminobutyric acid receptor subunit alpha-1 (P62813 whole entry): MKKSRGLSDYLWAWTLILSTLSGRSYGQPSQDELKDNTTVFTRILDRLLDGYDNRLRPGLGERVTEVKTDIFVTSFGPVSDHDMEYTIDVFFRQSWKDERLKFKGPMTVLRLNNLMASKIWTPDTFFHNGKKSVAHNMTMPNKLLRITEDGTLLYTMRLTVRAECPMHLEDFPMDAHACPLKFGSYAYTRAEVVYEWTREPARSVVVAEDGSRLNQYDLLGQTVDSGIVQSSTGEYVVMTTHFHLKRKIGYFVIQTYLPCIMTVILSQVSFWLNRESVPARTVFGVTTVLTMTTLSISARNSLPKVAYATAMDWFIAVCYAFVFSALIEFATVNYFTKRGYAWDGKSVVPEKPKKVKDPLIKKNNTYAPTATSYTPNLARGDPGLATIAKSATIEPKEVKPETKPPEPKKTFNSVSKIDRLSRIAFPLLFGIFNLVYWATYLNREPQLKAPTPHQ
T3 sequence (P28223 whole entry): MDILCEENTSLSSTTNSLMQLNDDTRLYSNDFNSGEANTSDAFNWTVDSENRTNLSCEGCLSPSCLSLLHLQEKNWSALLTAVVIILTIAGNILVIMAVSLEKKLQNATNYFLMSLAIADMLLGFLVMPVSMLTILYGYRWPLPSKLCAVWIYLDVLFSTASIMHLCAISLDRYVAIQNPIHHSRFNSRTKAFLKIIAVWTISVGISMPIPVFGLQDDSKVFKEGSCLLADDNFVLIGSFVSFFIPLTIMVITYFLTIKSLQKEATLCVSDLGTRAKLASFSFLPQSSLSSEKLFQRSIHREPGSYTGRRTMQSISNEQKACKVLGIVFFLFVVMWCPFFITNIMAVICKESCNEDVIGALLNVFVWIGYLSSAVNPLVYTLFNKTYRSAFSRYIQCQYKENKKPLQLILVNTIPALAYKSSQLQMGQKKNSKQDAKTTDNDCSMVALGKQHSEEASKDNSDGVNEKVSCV
Chain of Cannabinoid receptor 1 (P21554 whole entry): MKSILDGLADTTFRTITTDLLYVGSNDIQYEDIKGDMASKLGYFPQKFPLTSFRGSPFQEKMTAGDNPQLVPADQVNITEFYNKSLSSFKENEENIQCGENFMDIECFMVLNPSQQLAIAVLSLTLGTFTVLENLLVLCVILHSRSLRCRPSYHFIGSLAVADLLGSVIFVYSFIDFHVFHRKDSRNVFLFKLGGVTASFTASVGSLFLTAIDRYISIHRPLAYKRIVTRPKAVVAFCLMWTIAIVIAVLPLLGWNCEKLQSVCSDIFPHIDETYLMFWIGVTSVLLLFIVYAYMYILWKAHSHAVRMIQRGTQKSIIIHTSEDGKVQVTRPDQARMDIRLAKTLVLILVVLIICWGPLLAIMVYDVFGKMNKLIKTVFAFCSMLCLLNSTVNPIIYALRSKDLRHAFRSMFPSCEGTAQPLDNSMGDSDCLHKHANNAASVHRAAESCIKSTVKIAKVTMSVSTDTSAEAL
Chain of Sodium-dependent noradrenaline transporter (P23975 whole entry): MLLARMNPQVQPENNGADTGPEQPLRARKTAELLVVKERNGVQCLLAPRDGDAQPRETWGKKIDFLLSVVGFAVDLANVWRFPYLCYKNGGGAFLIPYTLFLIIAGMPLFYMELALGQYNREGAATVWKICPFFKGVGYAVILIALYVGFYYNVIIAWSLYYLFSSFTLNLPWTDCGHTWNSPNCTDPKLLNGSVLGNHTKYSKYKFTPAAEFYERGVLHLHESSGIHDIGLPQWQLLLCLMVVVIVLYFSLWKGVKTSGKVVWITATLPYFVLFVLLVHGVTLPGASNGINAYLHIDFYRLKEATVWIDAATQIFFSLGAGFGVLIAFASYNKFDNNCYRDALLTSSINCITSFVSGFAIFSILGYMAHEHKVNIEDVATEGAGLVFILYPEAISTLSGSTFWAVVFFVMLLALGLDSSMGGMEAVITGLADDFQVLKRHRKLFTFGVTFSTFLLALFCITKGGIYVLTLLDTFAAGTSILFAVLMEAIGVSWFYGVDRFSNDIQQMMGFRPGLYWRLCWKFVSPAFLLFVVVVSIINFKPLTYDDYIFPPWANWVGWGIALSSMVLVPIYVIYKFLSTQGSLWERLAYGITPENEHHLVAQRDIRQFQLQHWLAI
Chain of Neuronal acetylcholine receptor subunit alpha-4 (P43681 whole entry): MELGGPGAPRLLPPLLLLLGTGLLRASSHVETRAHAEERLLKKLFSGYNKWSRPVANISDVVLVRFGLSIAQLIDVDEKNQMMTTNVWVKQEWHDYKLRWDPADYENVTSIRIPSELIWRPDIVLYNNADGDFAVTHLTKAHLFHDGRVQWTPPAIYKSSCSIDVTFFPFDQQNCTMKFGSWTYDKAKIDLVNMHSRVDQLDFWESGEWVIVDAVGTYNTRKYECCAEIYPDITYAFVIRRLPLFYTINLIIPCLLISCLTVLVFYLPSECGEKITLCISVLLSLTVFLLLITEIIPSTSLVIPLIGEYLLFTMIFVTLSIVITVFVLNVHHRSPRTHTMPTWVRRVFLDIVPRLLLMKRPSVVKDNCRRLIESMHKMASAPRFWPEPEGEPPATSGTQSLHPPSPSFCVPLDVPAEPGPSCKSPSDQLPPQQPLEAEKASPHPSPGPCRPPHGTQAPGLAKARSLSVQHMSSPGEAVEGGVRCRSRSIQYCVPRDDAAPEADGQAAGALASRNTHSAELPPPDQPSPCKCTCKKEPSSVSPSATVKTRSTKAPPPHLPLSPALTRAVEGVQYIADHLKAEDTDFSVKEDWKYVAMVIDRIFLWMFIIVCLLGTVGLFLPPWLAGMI

For `CC(=O)Nc1ccc(/C=N/NC(N)=S)cc1` [AMITHIOZONE], which AC50 [1] is on record?
The AC50 was > 30 µM.

For `CC(=O)OC1CN2CCC1CC2` (configuration not stated) [ACECLIDINE], which AC50 [1] is on record?
The AC50 was > 30 µM.

With `CC(C)(C)NCC(O)COc1ccccc1C#N` (configuration not stated) [BUNITROLOL] as the compound, how does the AC50 [1] read?
Its AC50 is > 30 µM.

What about the AC50 [2] of the same compound?
Its AC50 is > 30 µM.

And the AC50 [3]?
Its AC50 is > 30 µM.

And the AC50 [4]?
The AC50 was > 30 µM.

And the AC50 [5]?
Its AC50 is > 30 µM.

What about the AC50 [6] of the same compound?
The AC50 was > 30 µM.

What about the AC50 [7] of the same compound?
Its AC50 is 21 µM.

What about the AC50 [8] of the same compound?
Its AC50 is > 30 µM.

And the AC50 [9]?
Its AC50 is > 30 µM.

And the AC50 [10]?
Its AC50 is > 30 µM.

Which results are given for `COc1ccc(C(=O)c2ccccc2)c(O)c1` [OXYBENZONE]?
AC50 [1]: > 30 µM; AC50 [2]: > 30 µM; AC50 [3]: > 30 µM; AC50 [4]: > 30 µM; AC50 [5]: > 30 µM; AC50 [6]: > 30 µM; AC50 [7]: > 30 µM; AC50 [8]: > 30 µM; AC50 [9]: 26 µM; AC50 [10]: > 30 µM

How did the AC50 [1] turn out when `C[C@@H](O)[C@H]1C(=O)N2C(C(=O)O)=C(S[C@@H]3CN[C@H](C(=O)Nc4cccc(C(=O)O)c4)C3)[C@H](C)[C@H]12` was run?
Its AC50 is > 30 µM.

For `O=C(OOC(=O)c1ccccc1)c1ccccc1` [BENZOYL PEROXIDE], which AC50 [1] is on record?
The AC50 was > 30 µM.

How did the AC50 [1] turn out when `COCC(=O)O[C@]1(CCN(C)CCCc2nc3ccccc3[nH]2)CCc2cc(F)ccc2[C@@H]1C(C)C` [MIBEFRADIL] was run?
The AC50 was > 30 µM.

For `N=C(N)NC(=O)c1nc(Cl)c(N)nc1N` [AMILORIDE], which AC50 [1] is on record?
The AC50 was > 30 µM.

What about the AC50 [2] of the same compound?
Its AC50 is > 30 µM.

And the AC50 [11]?
The AC50 was > 30 µM.

And the AC50 [12]?
Its AC50 is > 30 µM.

What about the AC50 [13] of the same compound?
Its AC50 is > 30 µM.

What about the AC50 [14] of the same compound?
The AC50 was > 30 µM.

What about the AC50 [4] of the same compound?
The AC50 was > 30 µM.

And the AC50 [7]?
Its AC50 is > 30 µM.

What about the AC50 [15] of the same compound?
Its AC50 is > 30 µM.

What about the AC50 [8] of the same compound?
Its AC50 is > 30 µM.

What about the AC50 [9] of the same compound?
The AC50 was > 30 µM.

And the AC50 [16]?
Its AC50 is > 30 µM.

And the AC50 [10]?
The AC50 was > 30 µM.

For `COc1c(OCCCN2CCOCC2)ccc2c1N=C(NC(=O)c1cnc(N)nc1)N1CCN=C21` [COPANLISIB], which AC50 [1] is on record?
The AC50 was > 30 µM.

With `CC1=C(/C=C/C(C)=C\C=C\C(C)=C\C(=O)O)C(C)(C)CCC1` [ALITRETINOIN] as the compound, how does the AC50 [1] read?
The AC50 was > 30 µM.

`O=C1Nc2ccccc2C1(c1ccc(O)cc1)c1ccc(O)cc1` [OXYPHENISATINE] was tested. Which AC50 [1] did it give?
Its AC50 is > 30 µM.

For `CC(=O)O[C@]1(C(C)=O)CC[C@H]2[C@@H]3CCC4=CC(=O)CCC4=C3[C@@H](c3ccc(N(C)C)cc3)C[C@@]21C` [ULIPRISTAL ACETATE], which AC50 [1] is on record?
Its AC50 is > 30 µM.

For `CC1(C)C[C@@H]1C(=O)N/C(=C\CCCCSC[C@H](N)C(=O)O)C(=O)O` [CILASTATIN], which AC50 [1] is on record?
The AC50 was > 30 µM.

Which AC50 [1] does the source give for `OC(CN1CCCCC1)c1cc(-c2ccccc2)on1` (configuration not stated) [PERISOXAL] here?
Its AC50 is > 30 µM.

For `CC1=C(/C=C/C(C)=C/C=C/C(C)=C\C(=O)O)C(C)(C)CCC1` [ISOTRETINOIN], which AC50 [1] is on record?
Its AC50 is > 30 µM.

For `CC1(C)S[C@@H]2[C@H](NC(=O)[C@H](NC(=O)c3cnc4cccnc4c3O)c3ccccc3)C(=O)N2[C@H]1C(=O)O` [APALCILLIN], which AC50 [1] is on record?
Its AC50 is > 30 µM.

With `CSCC[C@H](N)C(=O)O` [METHIONINE] as the compound, how does the AC50 [1] read?
Its AC50 is > 30 µM.
